In patent US7838271B2, “Microbiological method for producing amides” (priority 2001, dated 2010):
Like-named read-outs stand apart in the source and are kept apart here. Marks after values point to notes of the source that are not given here.

Experiments:
[1] = tested on: Rhodococcus sp. FZ4 nitrile hydratase; format: cell-based
Description: (§1) Nitrile hydratase activity was determined by incubating a reaction mixture comprising 3-cyanopyridine (1.0 M; 1.0 ml), potassium phosphate buffer (0.1 M, pH 7.0; 0.5 ml) and cell suspension (0.5 ml) with stirring at 20° C. for 5 min. The reaction was stopped by adding HCI (5 M; 0.1 ml). After filtration (0.2 μm filter) of the reaction mixture, the amount of nicotinamide produced was determined by means of HPLC (Waters Spherisorb 5 μ ODS2 (4.6×150 mm); KH2P04/H3P04 (10 mM; pH 2.8)/acetonitrile=9:1 (v/v); 1 ml/min; 230 nm). The total activity is expressed as μmol of nicotinamide produced/ (min×ml) and the specific activity is expressed as μmol of nicotinamide produced/(min×ml×OD610 nm).
(§2) The preculture medium of Table 2 was inoculated with strain Rhodococcus sp. FZ4 (DSM 13597), followed by incubation with shaking at 28° C. for 1 to 2 days. The preculture was transferred into the culture medium of Table 5, which contained different inducers, and cultured with shaking at 28° C. for 3 days. Nitrile hydratase activity was determined according to Example 1. Rhodococcus sp.

Rhodococcus sp. FZ4 [2] = format: cell-based
Description: as §2

[3] = tested on: Rhodococcus sp. FZ4 nitrile hydratase; experiment: Substrate specificity of nitrile hydratase activity, resting cells; format: cell-based
Description: as §1
Rhodococcus sp. FZ4 nitrile hydratase activity with respect to different substrates was determined according to Example 1, except that the appropriate substrate was used instead of 3-cyanopyridine and that the HPLC conditions were modified according to the substrate used.

[4] = tested on: Rhodococcus rhodochrous J1 nitrile hydratase; experiment: Substrate specificity of nitrile hydratase activity (comparison strain); format: cell-based
[5] = tested on: Amycolatopsis sp. NA40 nitrile hydratase; experiment: KM value for 3-cyanopyridine, resting cells; format: cell-based; conditions: 30° C., pH 7.0
Description: The reaction was stopped by adding HC1(2 M; 0.1 ml).
FZ4, Rhodococcus sp. GF270 (DSM 12211; WO 99/05306), Amycolatopsis sp. NA40 (DSM 11617; WO 99/05306) and Rhodococcus rhodochrous J1 were determined according to Example 11 using the respective microorganism.

[6] = tested on: Amycolatopsis sp. NA40 nitrile hydratase; format: cell-based; conditions: incubation for 15 min
Description: as §1
(§3) […] The cells were removed, washed and resuspended in potassium phosphate buffer (0.1 M; pH 7.0).
(§4) The influence of 3-cyanopyridine concentration on the nitrile hydratase activities of Rhodococcus sp. FZ4, Rhodococcus sp. GF270, Amycolatopsis sp. NA40 and Rhodococcus rhodochrous J1 was determined according to Example 9 using the respective microorganism and the 3-cyanopyridine concentrations indicated in Table 10.

[7] = tested on: Rhodococcus sp. FZ4 nitrile hydratase; format: cell-based; conditions: for Relative activity: incubation for 60 min
Description: as §1, §3, §4

[8] = tested on: Rhodococcus sp. GF270 nitrile hydratase; format: cell-based; conditions: incubation for 60 min
Description: as §1
A cell suspension was incubated at different 3-cyano-30 pyridine concentrations in the range from 0 to 10% (w/v) at 20° C. for 60 min. The cells were removed, washed and resuspended in potassium phosphate buffer (0.1 M; pH 7.0).
as §4

[9] = tested on: Rhodococcus rhodochrous J1 nitrile hydratase; format: cell-based; conditions: incubation for 15 min
Description: […] The reaction was stopped by adding HCI (5 M; 0.1 ml). After filtration (0.2 μm filter) of the reaction mixture, the amount of nicotinamide produced was determined by means of HPLC (Waters Spherisorb 5 μ ODS2 (4.6×150 mm); KH2P04/H3P04 (10 mM; pH 2.8)/acetonitrile=9:1 (v/v); 1 ml/min; 230 nm). The total activity is expressed as μmol of nicotinamide produced/ (min×ml) and the specific activity is expressed as μmol of nicotinamide produced/(min×ml×OD610 nm).
as §3, §4

[10] = tested on: purified Rhodococcus sp. FZ4 nitrile hydratase; experiment: Substrate specificity of purified nitrile hydratase; format: biochemical
Description: A reaction mixture comprising nitrile hydratase solution (0.695 μmol/min; 0.025 ml), different substrates (0.500 ml) and potassium phosphate buffer (0.1 M; pH 7.0; 0.475 ml) was incubated at 20° C. for 5 to 10 min. The concentrations of the substrates used were in the range from 0.015 to 0.250 M. The reaction was stopped by adding MeOH. The amount of amide produced was determined by means of HPLC.

[11] = tested on: purified Rhodococcus sp. FZ4 nitrile hydratase; experiment: KM value for 3-cyanopyridine, purified nitrile hydratase; format: biochemical; conditions: purified enzyme, potassium phosphate buffer pH 7.0, 20° C.
Description: The reaction mixture was incubated at 20° C. for 10 min. The reaction was stopped by adding methanol and the amount of nicotinamide produced was determined by means of HPLC according to Example 1.

[12] = water; cited from earlier work
[13] = tested on: Rhodococcus sp. FZ4 nitrile hydratase; format: cell-based; remark: listed apart in the source
Description: A reaction mixture comprising acetonitrile (0.2-19.0 M; 1.0-1.6 ml), aqueous NaCl solution (0.85% (w/v); 0.6-0.0 ml), potassium phosphate buffer (0.1 M; pH 7.0; 0.3 ml) and cell suspension (0.1 ml) was incubated with shaking at 20° C. for 10 min. The total reaction volume was 2.0 ml. The reaction was stopped by adding MeOH. The reaction mixture was centrifuged (12 000 rpm, 5 min) and the amount of acetamide produced was determined by means of HPLC according to Example 14.

[14] = tested on: Rhodococcus sp. FZ4 nitrile hydratase; format: cell-based; conditions: pH 7
Description: The reaction was stopped by adding MeOH. The reaction mixture was centrifuged (12 000 rpm, 5 min) and the amount of acetamide produced was determined by means of HPLC according to Example 14.

[15] = tested on: purified Rhodococcus sp. FZ4 nitrile hydratase; conditions: read-out: KM value for acetonitrile; pH 7
Description: The reaction mixture was incubated at 20° C. for 10 min. The reaction was stopped by adding methanol and the amount of acetamide produced was determined by means of HPLC according to Example 14.

[16] = tested on: purified Rhodococcus sp. FZ4 nitrile hydratase; experiment: Influence of metal ions on the activity of purified nitrile hydratase; format: biochemical; conditions: no addition = 100
Description: A solution comprising nitrile hydratase solution (0.695 μmol/min; 0.025 ml), potassium phosphate buffer (0.1 M; pH 7.0; 0.475 ml), distilled water (0.150 ml) and different potential inhibitors (0.100 ml) was incubated at 20° C. for 5 min. This was followed by the addition of 3-cyanopyridine (1.0 M; 0.250 ml). The concentration of the inhibitors in the reaction mixture was 1.0 mM. The reaction mixture was incubated at 20° C. for 10 min. The reaction was stopped by adding MeOH. The amount of nicotinamide produced was determined by means of HPLC according to Example 1.
The influence of metal ions on the activity of purified nitrile hydratase was carried out according to Example 24, but with the addition of metal ions instead of potential inhibitors. […]

[17] = tested on: Rhodococcus sp. FZ4 nitrile hydratase; experiment: Influence of cofactors on nitrile hydratase activity during cultivation; format: cell-based; conditions: basal medium with cofactor 0.004 g/l, 28° C., 2 to 3 days; substrate 3-cyanopyridine
Description: as §1
The preculture medium of Table 2 was inoculated with strain Rhodococcus sp. FZ4 (DSM 13597), followed by incubation with shaking at 28° C. for 1 to 2 days. The preculture was transferred into the basal medium of Table 3, which contains either CoCl 2 or FeSO4, and cultured with shaking at 28° C. for 2 to 3 days. Nitrile hydratase activity was determined according to Example 1.

Rhodococcus sp. FZ4 [18] = experiment: Influence of cofactors on growth during cultivation; format: cell-based; conditions: basal medium with cofactor 0.004 g/l, 28° C., 2 to 3 days
Description: The preculture medium of Table 2 was inoculated with strain Rhodococcus sp. FZ4 (DSM 13597), followed by incubation with shaking at 28° C. for 1 to 2 days. The preculture was transferred into the basal medium of Table 3, which contains either CoCl 2 or FeSO4, and cultured with shaking at 28° C. for 2 to 3 days. Nitrile hydratase activity was determined according to Example 1. A nitrile hydratase activity was present only when culturing Rhodococcus sp. FZ4 in the presence of cobalt.

[19] = culture medium with inducer 0.2% (w/v), 28° C., 3 days, substrate 3-cyanopyridine
[20] = culture medium with inducer 0.2% (w/v), 28° C., 3 days

Compound: N#Cc1cccnc1 [3-Cyanopyridine]
- Specific activity [1, 19]: 2.21 μmol/(min × ml × OD610 nm)
- Total activity [1, 19]: 12.3 µmol/min/mL
- Growth (Rhodococcus sp. FZ4 [2]; [20]): 5.54 OD610 nm
- Relative activity ([3]; compound as substrate, 3-cyanopyridine = 100, resting cells, 20° C.): 100%
- Relative activity ([4]; compound as substrate, 3-cyanopyridine = 100): 100%
- Km [5]: 41.7 mM
- Relative activity ([6]; 3-cyanopyridine 2.5% (w/v)): 74^b %
- Relative activity ([6]; 3-cyanopyridine 5.0% (w/v)): 56^b %
- Relative activity ([6]; 3-cyanopyridine 7.5% (w/v)): 47^b %
- Relative activity ([6]; 3-cyanopyridine 10.0% (w/v)): 16^b %
- nitrile hydratase activity after incubation with 3-cyanopyridine ([7]; 0 to 20% (w/v) for 60 minutes, 20° C.): corresponded approximately to the original nitrile hydratase activity
- Relative activity ([7]; 3-cyanopyridine 2.5% (w/v)): 100^a %
- Relative activity ([7]; 3-cyanopyridine 5.0% (w/v)): 100^a %
- Relative activity ([7]; 3-cyanopyridine 7.5% (w/v)): 100^a %
- Relative activity ([7]; 3-cyanopyridine 10.0% (w/v)): 100^a %
- Relative activity ([8]; 3-cyanopyridine 2.5% (w/v)): 100^a %
- Relative activity ([8]; 3-cyanopyridine 5.0% (w/v)): 100^a %
- Relative activity ([8]; 3-cyanopyridine 7.5% (w/v)): 100^a %
- Relative activity ([8]; 3-cyanopyridine 10.0% (w/v)): 100^a %
- Relative activity ([9]; 3-cyanopyridine 5.0% (w/v)): 86^b %
- Relative activity ([9]; 3-cyanopyridine 10.0% (w/v)): 63^b %
- Total activity ([10]; substrate concentration 0.25 M, corresponds to 100%): ^aTotal activity: 4,164 μmol/(min × .ml).
- Relative activity ([10]; substrate concentration 0.25 M, reference = 100): 100^a %
- Km [11]: 80.5 mM

Compound: CC(N)=O [Acetamide]
- Specific activity [1, 19]: 4.98 μmol/(min × ml × OD610 nm)
- Total activity [1, 19]: 21.6 µmol/min/mL
- Growth (Rhodococcus sp. FZ4 [2]; [20]): 4.37 OD610 nm
- concentration of an acetamide solution saturated at 30° C. [12]: 220-230 g of acetamide in 100 ml of water

Compound: CC#N [Acetonitrile]
- Specific activity [1]: 4.13 μmol/(min × ml × OD610 nm)
- Total activity [1]: 18.4 µmol/min/mL
- Growth (Rhodococcus sp. FZ4 [2]): 4.46 OD610 nm
- Relative activity [3]: 646%
- nitrile hydratase activity as a function of acetonitrile concentration [13]: nearly constant
- nitrile hydratase activity after incubation with acetonitrile [14]: nearly constant
- Relative activity [10]: 1 008%
- Km [15]: 2.84 mM

Compound: O=[N+]([O-])[O-].[Ag+] [AgNO3]
- Relative activity ([16]; metal ions 1.0 mM): 0%

Compound: [Ca+2].[Cl-].[Cl-] [CaCl2]
- Relative activity ([16]; metal ions 1.0 mM): 113%

Compound: [Cl-].[Cl-].[Co+2] [CoC12]
- Specific activity [17]: 13.1 μmol/(min × ml × OD610 nm)
- Total activity [17]: 38.1 µmol/min/mL
- Growth (Rhodococcus sp. FZ4 [18]): 2.79 OD610 nm
- Relative activity ([16]; metal ions 1.0 mM): 110%

Compound: CC=CC#N [Crotononitrile]
- Specific activity [1, 19]: 49.4 μmol/(min × ml × OD610 nm)
- Total activity [1, 19]: 407 µmol/min/mL
- Growth (Rhodococcus sp. FZ4 [2]; [20]): 8.24 OD610 nm
- Relative activity [3]: 92.1%
- Relative activity [4]: 78%
- Relative activity [10]: 114%

Compound: O=S(=O)([O-])[O-].[Cu+2] [CuS04]
- Relative activity ([16]; metal ions 1.0 mM): 177%

Compound: [Cl][Fe]([Cl])[Cl] [FeCl3]
- Relative activity ([16]; metal ions 1.0 mM): 105%

Compound: O=S(=O)([O-])[O-].[Fe+2] [FeSO4]
- Specific activity [17]: 0.346 μmol/(min × ml × OD610 nm)
- Total activity [17]: 0.989 µmol/min/mL
- Growth (Rhodococcus sp. FZ4 [18]): 2.86 OD610 nm
- Relative activity ([16]; metal ions 1.0 mM): 113%

Compound: [Cl][Hg][Cl] [HgCl2]
- Relative activity ([16]; metal ions 0.1 mM (footnote b)): 0%

Compound: [Cl][Mn][Cl] [MnCl2]
- Relative activity ([16]; metal ions 1.0 mM): 123%

Compound: [Cl][Ni][Cl] [NiCl2]
- Relative activity ([16]; metal ions 1.0 mM): 123%

Compound: CCC#N [Propionitrile]
- Specific activity [1, 19]: 20.3 μmol/(min × ml × OD610 nm)
- Total activity [1, 19]: 95.8 µmol/min/mL
- Growth (Rhodococcus sp. FZ4 [2]; [20]): 4.72 OD610 nm
- Relative activity [3]: 412%
- Relative activity [4]: 435%
- Relative activity [10]: 693%

Compound: O=S(=O)([O-])[O-].[Zn+2] [ZnSO4]
- Relative activity ([16]; metal ions 1.0 mM): 121%
